What was measured:
Type in all cases: in vivo
[1] = system: panelists; experiment: Fractionated swingle extract: comparative sensory evaluation in 0% and 2% sucrose; details: from fractions at 60 ppm in 2% sucrose and LC-MS analysis
Description: Swingle extract, comprising 80% total mogroside content by weight, was fractionated by reversed phase (C-18) flash chromatography. Compounds were eluted using a mixture of methanol (MeOH) in water starting at 30% MeOH (264 ml) followed by a linear gradient of 30-80% MeOH (1320 ml) then finally the column was flushed with 80% MeOH (264 ml). The solvents were introduced at a flow rate of 30 ml/min throughout the separation procedure. Eluted compounds were visualized with a UV detector set at 210 nm and a Corona light scattering detector. Collected fractions were pooled according to the table below then freeze dried to powders.
The powders corresponding to various pooled fractions as given in the table below were dissolved in a concentration of 60 ppm in either 0% or 2% sucrose. The sample in 0% sucrose when determined to be sweet was in addition to the 0% sucrose control also compared to a 2% sucrose control and to the other fractions to estimate the degree of sweetness.

[2] = system: sweet sensitive panelists; experiment: Ranking test, near threshold sweetness isointensity of enhancer in water (Example 3b); details: for isointensity to sucrose solution: 20 ppm in water, by interpolation
Description: The sensory evaluation was conducted using a ranking method. Samples at ambient temperature were randomly presented in 15 ml blind aliquots (unidentifiable by panelists). […] After tasting each sample, the mouth was rinsed thoroughly with water at ambient temperature prior to tasting the next sample. […] They were asked to rank the samples from low to high with respect to perceived sweet taste.

[3] = system: sweet sensitive panelists; experiment: Comparative sensory evaluation of sweetness enhancers in sweetener solution or water (Example 1)
Description: Comparative sensory evaluation of sweetness enhancers in 2 or 7% sucrose
The test samples contained the potential sweetness enhancers in 0% sucrose (water), 2% sucrose, or 7% sucrose, and control samples of 0%, 2% and 7% sucrose without any additive. The sensory evaluations were conducted as follows. All samples were presented at ambient temperature in 15 ml aliquots to panels consisting of 5-9 sweet sensitive subjects of varying sweet sensitivity. After tasting each sample, the mouth was rinsed thoroughly with water at ambient temperature prior to tasting the next sample. The sucrose positive control (2% or 7%) was presented first and served as the sweetness reference to which all sweetness enhancer/sucrose combinations were directly compared.
One tasting sequence included tasting the sucrose control first, rinsing with water, tasting the sweetness enhancer/sucrose sample, rinsing with water followed by tasting the sucrose control again. Once the sequence was completed, each panelist chose the sample which was sweeter and evaluated the sweetness of each sample relative to one another.
In a second tasting sequence, this same procedure was followed for the water negative control versus the sweetness enhancer/water samples to determine the sweet taste due to the sweetness enhancer itself at each tested concentration.
Panelists evaluated the sweetness of the sweetness enhancer in water for each concentration. For their evaluation, panelists were allowed to compare any perceived sweetness of the sweetness enhancer to the 2% or 7% sucrose control to determine the relative intensity of sweetness. Mild sweet taste corresponds to the taste of 2% sucrose, strong sweet taste corresponds to the taste of 7% sucrose.
Alternatively to sucrose, the evaluation may be performed with another sweetener, for example, high fructose (55%) corn syrup (HFCS, containing 55% fructose and 45% glucose), erythritol, sucralose, aspartame, or acesulfame potassium (AceK).

[4] = system: sweet sensitive subjects; experiment: Sweetness quality evaluation (time of onset, localization, duration); details: for Sensory evaluation of sweetness intensity: sweetness quality
Description: (§1) Rebaudioside A (99%+, purified from plant extract, Sweet Aloha Farms, LLC) (1 ppm, 10 ppm, 20 ppm, 30 ppm) in 2% sucrose samples was evaluated for the qualities of the sweetness of the samples (time of onset, localization, duration). The sensory evaluations were conducted as follows. All samples were presented at ambient temperature in 15 ml aliquots and presented blindly to sweet sensitive subjects of varying sweet sensitivity. Subjects tasted the samples and were asked to evaluate the quality of sweetness. Sucrose solutions (2% and 7%) were presented as references.
Rebaudioside A (99%+, purified from plant extract, Sweet Aloha Farms, LLC) (1 ppm, 10 ppm, 20 ppm, 30 ppm) in 7% sucrose samples were evaluated for the qualities of the sweetness of the samples (time of onset, localization, duration). The sensory evaluations were conducted as follows. All samples were presented at ambient temperature in 15 ml aliquots and presented blindly to sweet sensitive subjects of varying sweet sensitivity. Subjects tasted the samples and were asked to evaluate the quality of the sweetness. Sucrose solutions (2% and 7%) were presented as references to evaluate the sweetness of the rebaudioside A samples.
as §1, with “Stevioside extract (95%+,” for “Rebaudioside A (99%+,”, “Apin Chemicals) (20” for “Sweet Aloha Farms, LLC) (1 ppm, 10 ppm, 20”, “30 ppm, 40 ppm, 50” for “30”, “ppm) was evaluated” for “ppm)”, “sucrose” for “sucrose samples was evaluated”, “sweetness qualities.” for “quality of sweetness.”
Stevioside (20 ppm, 30 ppm, 40 ppm, 50 ppm) was evaluated in 7% sucrose for the qualities of the sweetness of the samples (time of onset, localization, duration). The sensory evaluations were conducted as follows. All samples were presented at ambient temperature in 15 ml aliquots and presented blindly to sweet sensitive subjects of varying sweet sensitivity. Subjects tasted the samples and were asked to evaluate the sweetness qualities. Sucrose solutions (2% and 7%) were presented as references to evaluate the sweetness of the stevioside samples.

[5] = system: sweet sensitive panelists; experiment: Paired comparison of sweetness enhancers in water versus sucrose (Example 4, modified)
Description: Paired Comparisons of Sweetness Enhancers and Mixtures Thereof in Water and 7% Sucrose
Samples of sweetness enhancers were prepared in water or 7% sucrose. One, two or three sweetness enhancers were used in a sample. All samples were presented to panelists at ambient temperature. The sensory evaluation was conducted using a paired comparison method. […] Samples were paired randomly and presented in unidentifiable pairs of two (left and right) to the panelists in random order. The sample on the left was tasted first, followed by rinsing the mouth with water, then tasting the sample on the right. Once completing the sequence, each panelist ranked the pair of samples for sweetness then evaluated samples with respect to one another with the following descriptors (in ascending order): […]

[6] = system: sweet sensitive panelists; experiment: Ranking test, sweetness isointensity of enhancer in sweetener solution (Example 3a)
Description: Ranking Tests to Determine the Sweetness Isointensity of Sweetness Enhancers to Sucrose Solutions
For comparative ranking, samples of 0.5%, 1%, 1.5%, 7%, 8%, 9%, 10% and 11% sucrose solutions were prepared.
3a) Sweetness Isointensity of Sweetness Enhancer in Sucrose Solutions
The sensory evaluation was conducted using a ranking method. Samples at ambient temperature were randomly presented in 15 ml blind aliquots (unidentifiable by panelists). Panels consisted of 10 sweet sensitive subjects and samples were presented in 4 replications over 2 sessions. After tasting each sample, the mouth was rinsed thoroughly with water at ambient temperature prior to tasting the next sample. Panelists were presented with 7%, 8%, 9%, 10%, 11% sucrose samples and a sixth sample of 7% sucrose with a sweetness enhancer in a concentration near its sweetness detection threshold. They were asked to rank the samples from low to high with respect to perceived sweet taste. R-indices were calculated for 7% sucrose with the sweetness enhancer versus 7%, 8%, 9%, 10% or 11% sucrose.

[7] = 20 ppm in water vs 0.5% sucrose
[8] = 20 ppm in water vs 1.5% sucrose
[9] = 20 ppm in 7% sucrose vs 7% sucrose
[10] = 20 ppm in 7% sucrose vs 8% sucrose
[11] = 20 ppm in 7% sucrose vs 9% sucrose
[12] = 20 ppm in 7% sucrose vs 10% sucrose
[13] = 20 ppm in 7% sucrose vs 11% sucrose

C[C@H](CC[C@@H](O[C@@H]1O[C@H](CO[C@@H]2O[C@H](CO)[C@@H](O)[C@H](O)[C@H]2O)[C@@H](O)[C@H](O)[C@H]1O[C@@H]1O[C@H](CO)[C@@H](O)[C@H](O)[C@H]1O)C(C)(C)O)[C@H]1CC[C@@]2(C)[C@@H]3CC=C4[C@@H](CC[C@H](O[C@@H]5O[C@H](CO[C@@H]6O[C@H](CO)[C@@H](O)[C@H](O)[C@H]6O)[C@@H](O)[C@H](O)[C@H]5O)C4(C)C)[C@]3(C)[C@H](O)C[C@]12C [mogroside V]
contribution to the observed enhancement effect of swingle extract [1]: mainly due to mogroside V

C[C@H](CC[C@@H](O[C@@H]1O[C@H](CO)[C@@H](O)[C@H](O)[C@H]1O[C@@H]1O[C@H](CO)[C@@H](O)[C@H](O)[C@H]1O)C(C)(C)O)[C@H]1CC[C@@]2(C)[C@H]3CC=C4[C@@H](CC[C@H](O[C@@H]5O[C@H](CO[C@@H]6O[C@H](CO)[C@@H](O)[C@H](O)[C@H]6O)[C@@H](O)[C@H](O)[C@H]5O)C4(C)C)[C@]3(C)[C@H](O)C[C@]12C [mogroside IV]
contribution to the observed enhancement effect of swingle extract [1]: contributing marginally

C=C1C[C@@]23CC[C@H]4[C@@](C)(CCC[C@@]4(C)C(=O)O[C@@H]4O[C@H](CO)[C@@H](O)[C@H](O)[C@H]4O)[C@@H]2CC[C@]1(O[C@@H]1O[C@H](CO)[C@@H](O)[C@H](O[C@@H]2O[C@H](CO)[C@@H](O)[C@H](O)[C@H]2O)[C@H]1O[C@@H]1O[C@H](CO)[C@@H](O)[C@H](O)[C@H]1O)C3 [Rebaudioside A]
R-index [2, 7]: 84%
sample sweetness (RedA, 20 ppm) [2, 7]: sweeter
R-index ([2]; 20 ppm in water vs 1% sucrose): 12%
sample sweetness (RedA, 20 ppm) ([2]; 20 ppm in water vs 1% sucrose): less sweet
R-index [2, 8]: 0%
sample sweetness (RedA, 20 ppm) [2, 8]: less sweet
isointensity to sucrose solution ([2]; listed as rebaudioside): about 0.75 % sucrose
isointensity to sucrose solution ([2]; listed as rebaudioside A): 0.75 % sucrose
Sensory evaluation of sweetness intensity ([3]; 1 ppm in 2% sucrose): barely perceived as sweeter than sucrose control
Sensory evaluation of sweetness intensity ([3]; 1 ppm in 7% sucrose): very weakly sweeter than sucrose control
Sensory evaluation of sweetness intensity ([3]; 1 ppm in water (Example 8A)): no sweetness
Sensory evaluation of sweetness intensity ([3]; 1 ppm in water (Example 8B)): no sweetness
Sensory evaluation of sweetness intensity ([3]; 10 ppm in 2% sucrose): notably sweeter than sucrose control
Sensory evaluation of sweetness intensity ([3]; 10 ppm in 7% sucrose): notably sweeter than sucrose control
Sensory evaluation of sweetness intensity ([3]; 10 ppm in water (Example 8A)): barely perceivable, late onsetting sweet
Sensory evaluation of sweetness intensity ([3]; 10 ppm in water (Example 8B)): barely perceivable, late onsetting sweet
Sensory evaluation of sweetness intensity ([3]; 20 ppm in 2% sucrose): much sweeter than sucrose control
Sensory evaluation of sweetness intensity ([3]; 20 ppm in 7% sucrose): much sweeter than sucrose control
Sensory evaluation of sweetness intensity ([3]; 20 ppm in water (Example 8A)): barely perceivable sweetness
Sensory evaluation of sweetness intensity ([3]; 20 ppm in water (Example 8B)): barely perceivable sweetness
Sensory evaluation of sweetness intensity ([3]; 30 ppm in 2% sucrose): substantially sweeter than sucrose control
Sensory evaluation of sweetness intensity ([3]; 30 ppm in 7% sucrose): substantially sweeter than sucrose control
Sensory evaluation of sweetness intensity ([3]; 30 ppm in water (Example 8A)): very weak sweetness far below the 2% sucrose control
Sensory evaluation of sweetness intensity ([3]; 30 ppm in water (Example 8B)): very weak sweetness far below the 2% sucrose control
Sensory evaluation of sweetness intensity (strength, onset, localisation, duration) ([4]; 1 ppm in 7% sucrose): immediate onset, full mouth sweet, non-lingering
Sensory evaluation of sweetness intensity (strength, onset, localisation, duration) ([4]; 10 ppm in 7% sucrose): immediate onset, full mouth sweet, non-lingering
Sensory evaluation of sweetness intensity (strength, onset, localisation, duration) ([4]; 20 ppm in 7% sucrose): immediate onset, full mouth sweet, non-lingering
Sensory evaluation of sweetness intensity ([4]; 1 ppm in 2% sucrose): immediate onset, full mouth sweet, non-lingering
Sensory evaluation of sweetness intensity ([4]; 10 ppm in 2% sucrose): immediate onset full mouth sweet, non-lingering
Sensory evaluation of sweetness intensity ([4]; 20 ppm in 2% sucrose): immediate onset, full mouth sweet, non-lingering
Result of comparison ([5]; 1 ppm in water vs 0% sucrose): isosweet
Result of comparison ([5]; 10 ppm in water vs 0% sucrose): weakly sweeter
Result of comparison ([5]; 10 ppm in water vs 0.5% sucrose): notably less sweet
Result of comparison [5, 7]: notably sweeter
Result of comparison ([5]; 20 ppm in water vs 1% sucrose): less sweet
isointensity to sucrose solution ([5]; 30 ppm in water): 1 % sucrose
Result of comparison ([5]; 30 ppm in water vs 1% sucrose): isosweet
Result of comparison ([5]; 30 ppm in water vs 1.5% sucrose): significantly less sweet
R-index [6, 9]: 91%
Rebaudioside A sample sweetness [6, 9]: sweeter
R-index [6, 10]: 72%
Rebaudioside A sample sweetness [6, 10]: sweeter
R-index [6, 11]: 7%
Rebaudioside A sample sweetness [6, 11]: less sweet
R-index [6, 12]: 0%
Rebaudioside A sample sweetness [6, 12]: less sweet
R-index [6, 13]: 0%
Rebaudioside A sample sweetness [6, 13]: less sweet
sweetness isointensity to sucrose ([6]; 20 ppm in 7% sucrose, by interpolation): 8.5 % sucrose

C[C@H](CC[C@@H](O[C@@H]1O[C@H](CO[C@@H]2O[C@H](CO)[C@@H](O)[C@H](O)[C@H]2O)[C@@H](O)[C@H](O)[C@H]1O[C@@H]1O[C@H](CO)[C@@H](O)[C@H](O)[C@H]1O)C(C)(C)O)[C@H]1CC[C@@]2(C)[C@@H]3CC=C4[C@@H](CC[C@H](O[C@@H]5O[C@H](CO)[C@@H](O)[C@H](O)[C@H]5O)C4(C)C)[C@]3(C)[C@H](O)C[C@]12C [siamenoside I]
contribution to the observed enhancement effect of swingle extract [1]: contributing marginally
